Results as given in patent US11000627B2, “Treatment of implants with phosphonic acid compounds” (Nano Bridging Molecules SA, priority 2016, dated 2021).

Assay: XPS phosphorus over metal ratio on ceramic dental implants
Type: physicochemical
Conditions: sonicated 70° C. 60 min, Metal = Al2s + Zr3d + Y3d
Procedure: A ceramic dental implant (alumina toughened zirconia, yttria stabilized; length 11.0 mm, diameter 3.8 mm) was provided with a smooth surface. The dental implant was immersed in 50 ml of a 2% (v/v) aqueous solution of deconex 15 PF-x (which is a phosphate free, potassium hydroxide based standard cleaning agent). The solution was placed in an ultrasonic bath (output frequency 30 kHz) and sonicated at 70° C. for 15 min. This step was repeated a second time. The implant was removed from the cleaning agent solution and rinsed with water as follows: 2 times with 50 ml, swirling at room temperature; 3 times with 50 ml, sonicating for 2 min at 70° C. The implant was then placed into 15 ml of a 0.7 mM aqueous solution of 1,1,3,3-propane tetraphosphonic acid. The solution was placed in the ultrasonic bath and sonicated at 70° C. for 60 min. The implant was rinsed with water as follows: 1 time with 10 ml, swirling at room temperature; 2 times with 10 ml, sonicating for 2 min at 65° C.; 1 time with 10 ml, swirling at room temperature. The dental implant was dried in a desiccator over P2O5 and under vacuum (ca 20 mbar) for at least 3 hours.
Following the surface treatment with one phosphonic acid compound as described in Examples 1 to 7 the samples were analyzed by X-ray photoelectron spectroscopy (XPS). XPS analyses were performed on an Axis Ultra spectrometer from Kratos (Kratos, Manchester, U.K.) equipped with a concentric hemispherical analyzer and using a monochromatized aluminum anode X-ray source (Al Kα1,2 1486.6 eV, full width at half maximum, fwhm=0.85 eV, 15 kV, 150 W). The samples were investigated under ultrahigh vacuum conditions: 10^−8-10^−7 Pa. Spectra were taken at a 90° takeoff angle with respect to the surface. A sample area of 300×700 μm^2 or 700×700 μm^2 was analyzed with a pass energy of 80.0 eV for survey scans. The spectrometer was calibrated by using Cu 2p3/2 (932.7 eV) and Au 4f7/2 (84.0 eV) signals. Surface sensitivity factors used to determine the atomic concentrations were those of the instrument. Spectra were peak fitted after background subtraction by assuming a Gaussian/Lorentzian (90-70/10-30) peak shape. All peaks between 0 eV to 1200 eV were inspected.
The phosphorus over metal ratio (“Phosphorus/Metal”) was calculated dividing the % atomic concentration of phosphorus by the sum of the % atomic concentrations of all metals expected in the analyzed sample.
Four ceramic dental implants (alumina toughened zirconia, yttria stabilized; length 11.0 mm, diameter 3.8 mm) were provided with a smooth surface. The dental implants were immersed in 300 ml of a 2% (v/v) aqueous solution of deconex 15 PF-x (which is a phosphate free, potassium hydroxide based standard cleaning agent). […] The samples were analyzed by X-ray photoelectron spectroscopy (XPS). […]

Phosphorus/Metal (0.7 mM): 0.12 | Phosphorus/Metal (2.5 mM): 0.12 | Phosphorus/Metal (5 mM): 0.11 | Phosphorus/Metal (10 mM): 0.12
SMILES: O=P(O)(O)C(CC(P(=O)(O)O)P(=O)(O)O)P(=O)(O)O [1,1,3,3-propane tetraphosphonic acid]
